Measured values from patent US20170260169A1, “INHIBITORS FOR STEROID RESPONSE ELEMENTS AND RNA POLYMERASE II AND RELATED METHODS” (priority 2007, published 2017).
pIC50: −log10 of the molar value. “Also recorded” adds a separate entry of the source. Like-named read-outs stand apart in the source and are kept apart here. Each block holds one molecule with its values, some of them ahead of it.

Tests used:
LNCaP xenografts = LNCaP xenografts in male NSG mice; type: in vivo; details: six injections
Procedure: All mice experiments were conducted under an approved protocol by the Institutional Animal Care and Use Committee of the California Institute of Technology. Male NOD scid gamma (NSG) mice were purchased from The Jackson Laboratory. The animals were individually caged and maintained on a standard light-dark cycle. NSG mice were engrafted with LNCaP cells (2.5 million cells) in a mixture of 1:1 media and matrigel in the left flank. Tumors were grown to ˜100 mm^3 (L×W^2) before beginning treatment with compound or vehicle. Py-Im polyamide 77 was administered once every 3 days in a 5% DMSO:PBS vehicle solution until the experiment endpoint.
To investigate if polyamide 77 could be detected in peripheral blood after SC injections, 120 nmol of 77 (in 5% DMSO/PBS) was injected into the right flank of four C57BL/6 mice. Blood was collected from anesthetized mice via retroorbital collection at 5 minutes, 4 h, and 12 h after injection, then processed by methods previously described and analyzed by HPLC (35). For measurement of serum PSA (KLK3) and uric acid, blood was collected from anesthetized mice via retroorbital collection at experimental endpoint and serum was separated from blood by centrifugation. Serum PSA (KLK3) was measured by ELISA (R&D systems) according to manufacturer's instructions. Uric acid was measured as described (36).
Tumors were resected immediately after euthanasia and fixed in neutral buffered formalin. Selected samples were embedded in paraffin, sectioned and stained with hematoxylin and eosin (H&E). Selected sections were assessed by deoxynucleotidyltransferase dUTP nick-end labeling (TUNEL) as described (45).
Mice experiments were conducted under an approved protocol by the Institutional Animal Care and Use Committee of the California Institute of Technology. Male C57BL6/J mice and male NSG mice were purchased from The Jackson Laboratory. All animals were maintained on a standard light-dark cycle. LNCaP cells (2.5 million cells) were engrafted in a mixture of 1:1 media and matrigel in the left flank of NSG mice. Tumors were allowed grow to ˜200 mm^3 (0.5×L×W^2) before treatment. Py-Im polyamide 78 was administered by SC injection once every 3 d at 1 mg/kg in a 20% (vol/vol) DMSO:Normal saline vehicle solution for 6 injections. Animals were sacrificed two days after the final injection. Animal weight and general health were monitored daily. Fourteen animals were used for each treatment group.

[1] = Six-injection regimen of 78 in healthy male C57BL/6J mice, serum chemistry and hematology; type: in vivo; details: SC 1 mg/kg, six injections
Procedure: To assess the toxicity of the treatment regimen in healthy animals, male C57BL/6J mice were treated with an identical regimen as the tumor-bearing mice and were sacrificed two days after the final injection. Because the liver and kidney were identified as the target organs of toxicity in our previous study, we assessed relevant serum markers for liver and kidney pathology (FIG. 33D). […] To examine if 78 has an effect on circulating blood counts, whole blood was sampled before treatment and at the time of sacrifice.
(§1) Serum from treated animals were collected by retroorbital bleeding. […] All samples were sent for analysis at IDEXX-RADIL.

[2] = Liver microsomal stability, human; details: 1 μM, Human, 1 hr at 37° C., 1 mg/ml microsomes
[3] = Escalating single dose subcutaneous injections, male C57BL/6J mice (weight, histopathology, serum)
p53 = p53 protein ELISA in LNCaP cells; type: cell-based; details: polyamide 10 μM 72 hr; doxorubicin 1 μM 24 hr
Procedure: (§2) Cellular levels of RPB1 and p53 protein in LNCaP cells after treatment with 10 μM 3 for 72 h were determined by ELISA. Cells treated with DMSO vehicle and 1 μM doxorubicin for 24 h were used as control. Cellular RBP1 levels were determined by a RPB1 specific ELISA kit (Cusabio Life Sciences) according to manufacturer's instructions. Total cellular p53 protein level was determined with a pan-p53 ELISA kit (Roche) according to manufacturer's instructions. Assays were performed in biological triplicates.

[4] = Liver microsomal stability, mouse; details: 1 μM, Mouse, 1 hr at 37° C., 1 mg/ml microsomes
LNCaP cells = assay: Cell viability WST-1 assay; type: cell-based; details: 72 hr incubation; read-out: half maximal inhibitory concentration, viability of LNCaP cells
[5] = Multiple-dose subcutaneous injections, male C57BL/6J mice; type: in vivo; details: 1 mg/kg SC every 3 days
Procedure: In addition to single dose injections, the effects of repeated dosing of polyamides 77-80 in mice were examined. In this experiment, 8 week-old male C57BL/6J mice (n=3 per dosing group) were treated with 1 mg/kg of polyamides 77-80 by subcutaneous injection every 3 days, for a cycle of three injections and then sacrificed two days after the final injection (FIG. 31A). As in the single dosing experiments, two mice per group were subjected to histopathology analysis and all blood samples were sent for analysis. […] These mice were promptly euthanized.
as §1

RPB1 = RPB1 protein ELISA in LNCaP cells; type: cell-based
Procedure: as §2, with “Cellular levels of RPB1 and p53 protein in LNCaP cells after treatment with 10 μM 3 for 72 h were determined by ELISA.” left out

p53 target genes = assay: Quantitative RT-PCR of p53 target genes in LNCaP cells; type: cell-based
Procedure: RNA was extracted using RNEasy columns (Qiagen) according to manufacturer's protocols. cDNA was generated from RNA by reverse transcriptase (Transcriptor First Strand cDNA kit, Roche). Quantitative real-time RT-PCR was performed using SYBR Green PCR Master Mix (Applied Biosystems) on an ABI 7300 instrument. mRNA was measured relative to B glucuronidase as an endogenous control.
The cells were then treated with 1, 3, and 10 μM of 78 for 72 h. Total cellular RNA was extracted using RNEasy columns (Qiagen) following the manufacturer's protocols. Isolated RNA was reverse transcribed with Transcriptor First Strand cDNA kit (Roche). Quantitative real-time PCR was performed using SYBR Green PCR Master Mix (Applied Biosystems) on an ABI 7300 instrument. Amplification of p21, IGFBP3, and GADD45A cDNA was measured relative to β-glucuronidase using previously published primers (24). Experiments were performed in biological replicates.

[6] = human, microsomes, 1 h, 1 μM, pH 7.4
[7] = mouse, microsomes, 1 h, 1 μM, pH 7.4

SMILES: CC(=O)N[C@H](CCNC(=O)c1cc(NC(=O)c2cc(NC(=O)c3cc(NC(=O)c4nccn4C)cn3C)cn2C)cn1C)C(=O)Nc1cn(C)c(C(=O)Nc2cc(C(=O)Nc3cc(C(=O)Nc4cc(C(=O)NCCCN(C)CCCNC(=O)c5cccc(C(=O)O)c5)n(C)c4)n(C)c3)n(C)c2)n1 [Polyamide 78, ImPyPyPy-2-(R)^AcHNγ-ImPyPyPy-NHMe-IPA]
- T/C (tumor weight) (LNCaP xenografts; SC 1 mg/kg every three days): 52.4%
- weight loss and distress during xenograft treatment (LNCaP xenografts; SC 1 mg/kg): minimal weight loss and no signs of distress
- circulating blood counts [1]: No significant hematologic changes
- serum markers for liver and kidney pathology [1]: no elevations in AST, ALT, total bilirubin, creatinine, or BUN
- Mean remaining parent NADPH-free [2]: 94.9%
- Mean remaining parent with NADPH [2]: 95.3%
- tolerability, behavior and morbidity after single SC dose ([3]; 1, 3, 10 mg/kg): no change in behavior and appearance
- overall toxicity / organ damage ([3]; single SC 1, 3, 10 mg/kg): no detectable toxicity at any dose level tested; also recorded: no detectable animal toxicity at 10 mg/kg
- serum kidney markers creatinine and BUN ([3]; single SC dose): no elevation of these markers at the dose levels tested
- serum liver markers AST, ALT, total bilirubin ([3]; single SC dose): no elevation of these markers at the dose levels tested
- cellular level of p53 protein (p53): increases
- Mean remaining parent NADPH-free [4]: 100%
- Mean remaining parent with NADPH [4]: 97.3%
- pIC50 (LNCaP cells): 5.68
- liver and kidney histopathology [5]: no histopathologic lesions consistent with toxicity
- liver and kidney serum markers [5]: no histopathologic lesions consistent with toxicity or alterations in liver and kidney serum markers
- weight and physical morbidity ([5]; three injections): no loss in weight or physical morbidities
- RPB1 levels (RPB1; 1 μM for 72 h as printed): reduced RPB1 levels
- RPB1 protein (RPB1; polyamide 10 μM 72 hr, doxorubicin 1 μM 24 hr): decreases
- induction of p53 target genes (p53 target genes): induced by 78 in a dose-dependent fashion

- Mean remaining parent NADPH-free [6]: 100%
- Mean remaining parent with NADPH [6]: 100%
- Mean remaining parent NADPH-free [7]: 100%
- Mean remaining parent with NADPH [7]: 100%
SMILES: CC(=O)CC(c1ccccc1)c1c(O)c2ccccc2oc1=O (stereo not drawn) [Warfarin]
